The results in this text go back to ChEMBL document CHEMBL1155803 (Bioorg Med Chem, 2008).

One test deals with Muscarinic acetylcholine receptor M3 (Homo sapiens, UniProt P20309). Description: Displacement of [3H]N-methylscopolamine chloride from human cloned muscarinic M3 receptor expressed in CHOK1 cells. The test is classed as cell-based, CHO-K1.
Chain of Muscarinic acetylcholine receptor M3 (P20309 whole entry): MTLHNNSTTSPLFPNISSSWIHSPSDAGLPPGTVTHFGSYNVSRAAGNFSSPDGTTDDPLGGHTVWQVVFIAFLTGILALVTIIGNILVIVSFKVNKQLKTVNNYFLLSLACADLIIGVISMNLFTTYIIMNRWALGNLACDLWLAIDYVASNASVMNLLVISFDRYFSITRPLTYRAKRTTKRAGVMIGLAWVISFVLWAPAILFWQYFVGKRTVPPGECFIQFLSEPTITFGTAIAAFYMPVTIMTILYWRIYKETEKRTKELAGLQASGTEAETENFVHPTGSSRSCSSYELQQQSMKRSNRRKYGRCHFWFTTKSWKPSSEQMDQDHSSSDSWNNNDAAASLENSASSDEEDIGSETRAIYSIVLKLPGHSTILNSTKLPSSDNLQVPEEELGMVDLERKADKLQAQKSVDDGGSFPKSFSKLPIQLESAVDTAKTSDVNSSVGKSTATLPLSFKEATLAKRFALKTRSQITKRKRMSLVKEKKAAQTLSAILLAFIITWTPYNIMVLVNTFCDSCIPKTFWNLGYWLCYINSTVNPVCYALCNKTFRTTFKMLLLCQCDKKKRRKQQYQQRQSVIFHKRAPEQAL
Conditions: not given
`CN1CCN(CC(=O)N2c3ccccc3C(=O)Nc3cccnc32)[C@@H]2CCCC[C@H]21` (relative stereo) had a Ki greater than 10 µM.
The same measure, in the same setting: the result for `CN1CCN(CC(=O)N2c3ccccc3C(=O)Nc3cccnc32)[C@@H]2CCCC[C@@H]21` (relative stereo) reads greater than 10 µM; that for `CN(CCCCCCCCN(C)CCCCCCN(CC(=O)N1c2ccccc2C(=O)Nc2cccnc21)CC(=O)N1c2ccccc2C(=O)Nc2cccnc21)CCCCCCNCC(=O)N1c2ccccc2C(=O)Nc2cccnc21` [TRIPITRAMINE], 0.148 µM.

For another test, the target named is T1, Muscarinic acetylcholine receptor M2 (Homo sapiens, UniProt P08172).
T1 sequence (P08172 whole entry): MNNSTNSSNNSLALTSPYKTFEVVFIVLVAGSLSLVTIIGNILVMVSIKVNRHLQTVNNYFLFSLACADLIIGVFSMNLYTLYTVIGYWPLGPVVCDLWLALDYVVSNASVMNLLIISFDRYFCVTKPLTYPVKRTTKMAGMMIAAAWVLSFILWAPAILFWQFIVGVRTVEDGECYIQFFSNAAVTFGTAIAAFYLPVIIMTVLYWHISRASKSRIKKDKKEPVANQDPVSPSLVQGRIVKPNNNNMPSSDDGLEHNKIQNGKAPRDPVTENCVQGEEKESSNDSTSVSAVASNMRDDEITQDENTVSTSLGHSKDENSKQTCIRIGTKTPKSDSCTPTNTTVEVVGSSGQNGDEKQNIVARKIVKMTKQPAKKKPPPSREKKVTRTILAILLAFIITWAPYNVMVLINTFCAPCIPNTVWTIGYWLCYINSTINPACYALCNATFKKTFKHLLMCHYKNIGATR
Description: Displacement of [3H]N-methylscopolamine chloride from human cloned muscarinic M2 receptor expressed in CHOK1 cells. The format is cell-based, CHO-K1.
Conditions: not given
For the compound `CN1CCN(CC(=O)N2c3ccccc3C(=O)Nc3cccnc32)[C@@H]2CCCC[C@H]21` (relative stereo), the affinity, expressed as Ki, was 1 µM.
The compound `CN1CCN(CC(=O)N2c3ccccc3C(=O)Nc3cccnc32)[C@@H]2CCCC[C@@H]21` (relative stereo) showed a Ki of 0.646 µM.

Test system in another test: not listed separately
The experiment in a line: Antagonist activity at peripheral muscarinic M3 receptor in guinea pig longitudinal ileum assessed as effect on arecaidin propargyl ester-induced contraction after 1 hr. The test is classed as functional, tissue-based, Cavia porcellus.
Conditions: not given
Take `CN(C)[C@@H]1CCCC[C@H]1N(C)CC(=O)N1c2ccccc2C(=O)Nc2cccnc21.O=C(O)C(=O)O.O=C(O)C(=O)O`: the pA2 is 7.76.
For the compound `CN(C)[C@H]1CCCC[C@@H]1N(C)CC(=O)N1c2ccccc2C(=O)Nc2cccnc21.O=C(O)C(=O)O.O=C(O)C(=O)O`, the pA2 is 7.58.
The same measure, in the same setting: the result for `CN(C)[C@@H]1CCCC[C@@H]1N(C)CC(=O)N1c2ccccc2C(=O)Nc2cccnc21.O=C(O)C(=O)O.O=C(O)C(=O)O` reads 7.57; that for `CN(C)[C@H]1CCCC[C@H]1N(C)CC(=O)N1c2ccccc2C(=O)Nc2cccnc21.O=C(O)C(=O)O.O=C(O)C(=O)O`, 7.64; that for `CN1CCN(CC(=O)N2c3ccccc3C(=O)Nc3cccnc32)[C@@H]2CCCC[C@H]21` (relative stereo), 6.47.
Same read-out and setting: the result for `CN1CCN(CC(=O)N2c3ccccc3C(=O)Nc3cccnc32)[C@@H]2CCCC[C@@H]21` (relative stereo) reads 6.01.
Turning to `CN1CCN(CC(=O)N2c3ccccc3C(=O)Nc3cccnc32)CC1` [PIRENZEPINE], the pA2 is recorded as 6.88.
Still for that read-out and setting: in the case of `CN(CCCCCCCCN(C)CCCCCCN(CC(=O)N1c2ccccc2C(=O)Nc2cccnc21)CC(=O)N1c2ccccc2C(=O)Nc2cccnc21)CCCCCCNCC(=O)N1c2ccccc2C(=O)Nc2cccnc21` [TRIPITRAMINE] it was 6.55.

Test system in a further test: not listed separately
Description: Antagonist activity at peripheral muscarinic M4 receptor in rabbit vas deferens assessed as effect on McN-A-343-induced contraction after 1 hr. The test is classed as functional, tissue-based. The conditions noted are these: Oryctolagus cuniculus, read-out: pA2 (converted).
For `CN1CCN(CC(=O)N2c3ccccc3C(=O)Nc3cccnc32)[C@@H]2CCCC[C@H]21` (relative stereo), the Kb was 0.0794 µM.
Same read-out and setting: in the case of `CN1CCN(CC(=O)N2c3ccccc3C(=O)Nc3cccnc32)[C@@H]2CCCC[C@@H]21` (relative stereo) it was 0.0603 µM.
Same read-out and setting: in the case of `CN1CCN(CC(=O)N2c3ccccc3C(=O)Nc3cccnc32)CC1` [PIRENZEPINE] it was 0.00891 µM.
Same read-out and setting: the result for `CN(CCCCCCCCN(C)CCCCCCN(CC(=O)N1c2ccccc2C(=O)Nc2cccnc21)CC(=O)N1c2ccccc2C(=O)Nc2cccnc21)CCCCCCNCC(=O)N1c2ccccc2C(=O)Nc2cccnc21` [TRIPITRAMINE] reads 0.0112 µM.

In the next test the target is T2, Muscarinic acetylcholine receptor M1 (Homo sapiens, UniProt P11229).
T2 sequence (P11229 whole entry): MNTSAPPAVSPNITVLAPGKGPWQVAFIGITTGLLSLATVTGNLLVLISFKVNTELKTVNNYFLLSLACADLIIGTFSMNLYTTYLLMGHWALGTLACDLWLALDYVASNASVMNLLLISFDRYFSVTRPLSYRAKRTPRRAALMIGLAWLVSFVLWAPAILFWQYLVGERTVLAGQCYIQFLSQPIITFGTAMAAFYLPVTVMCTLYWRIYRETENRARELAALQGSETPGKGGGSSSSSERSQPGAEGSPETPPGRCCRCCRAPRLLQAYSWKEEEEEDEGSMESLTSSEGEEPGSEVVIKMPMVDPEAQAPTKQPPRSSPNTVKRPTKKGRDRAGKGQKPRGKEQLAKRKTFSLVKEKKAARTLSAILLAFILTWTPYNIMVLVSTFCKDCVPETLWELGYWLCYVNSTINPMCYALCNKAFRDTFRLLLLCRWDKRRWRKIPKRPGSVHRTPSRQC
The experiment in a line: Displacement of [3H]N-methylscopolamine chloride from human cloned muscarinic M1 receptor expressed in CHOK1 cells. The test is classed as cell-based, CHO-K1.
Conditions: not given
The compound `CN1CCN(CC(=O)N2c3ccccc3C(=O)Nc3cccnc32)[C@@H]2CCCC[C@H]21` (relative stereo) gave a Ki of 2.29 µM.
On the same count and under the same terms, in the case of `CN1CCN(CC(=O)N2c3ccccc3C(=O)Nc3cccnc32)[C@@H]2CCCC[C@@H]21` (relative stereo) it was 1.45 µM.
The compound `CN(CCCCCCCCN(C)CCCCCCN(CC(=O)N1c2ccccc2C(=O)Nc2cccnc21)CC(=O)N1c2ccccc2C(=O)Nc2cccnc21)CCCCCCNCC(=O)N1c2ccccc2C(=O)Nc2cccnc21` [TRIPITRAMINE] gave a Ki of 0.00355 µM.

Test system in a further test: not listed separately
The experiment in a line: Antagonist activity at peripheral muscarinic M2 receptor in guinea pig left atrium assessed as effect on arecaidin propargyl ester-induced contraction after 1 hr. The test is classed as functional, tissue-based. The conditions noted are these: Cavia porcellus, Cardiac atrium, read-out: pA2 (converted).
Regarding `CN1CCN(CC(=O)N2c3ccccc3C(=O)Nc3cccnc32)[C@@H]2CCCC[C@H]21` (relative stereo), the Kb is 0.0871 µM.
Same read-out and setting: in the case of `CN1CCN(CC(=O)N2c3ccccc3C(=O)Nc3cccnc32)[C@@H]2CCCC[C@@H]21` (relative stereo) it was 0.741 µM.
Same read-out and setting: the result for `CN1CCN(CC(=O)N2c3ccccc3C(=O)Nc3cccnc32)CC1` [PIRENZEPINE] reads 0.339 µM.

For the next test, the target named is T3, Muscarinic acetylcholine receptor M4 (Homo sapiens, UniProt P08173).
T3 sequence (P08173 whole entry): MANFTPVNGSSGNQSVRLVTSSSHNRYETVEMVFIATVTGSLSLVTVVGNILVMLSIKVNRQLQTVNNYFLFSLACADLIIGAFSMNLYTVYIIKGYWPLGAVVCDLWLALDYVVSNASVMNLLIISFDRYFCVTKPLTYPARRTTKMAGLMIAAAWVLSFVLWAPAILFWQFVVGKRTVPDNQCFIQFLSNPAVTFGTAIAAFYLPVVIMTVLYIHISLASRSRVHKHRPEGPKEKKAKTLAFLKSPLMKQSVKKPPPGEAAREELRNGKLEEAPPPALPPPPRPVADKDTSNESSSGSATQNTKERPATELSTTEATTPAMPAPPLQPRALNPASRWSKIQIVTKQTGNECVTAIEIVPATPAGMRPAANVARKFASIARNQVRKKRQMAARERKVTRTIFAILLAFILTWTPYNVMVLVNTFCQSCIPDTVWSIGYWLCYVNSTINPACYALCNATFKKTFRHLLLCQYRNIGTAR
Description: Displacement of [3H]N-methylscopolamine chloride from human cloned muscarinic M4 receptor expressed in CHOK1 cells. The test is classed as cell-based, CHO-K1.
Conditions: not given
On to `CN1CCN(CC(=O)N2c3ccccc3C(=O)Nc3cccnc32)[C@@H]2CCCC[C@H]21` (relative stereo), for which affinity was put at a Ki of 6.61 µM.
Still for that read-out and setting: the result for `CN1CCN(CC(=O)N2c3ccccc3C(=O)Nc3cccnc32)[C@@H]2CCCC[C@@H]21` (relative stereo) reads 2.45 µM.
Compound `CN(CCCCCCCCN(C)CCCCCCN(CC(=O)N1c2ccccc2C(=O)Nc2cccnc21)CC(=O)N1c2ccccc2C(=O)Nc2cccnc21)CCCCCCNCC(=O)N1c2ccccc2C(=O)Nc2cccnc21` [TRIPITRAMINE] had a Ki of 0.0115 µM.
